This passage reports IC50 results from US8415469B2, “Compounds and methods for kinase modulation, and indications therefor” (Plexxikon Inc., priority 2005, dated 2013).

By IC50 is commonly meant the point on the concentration scale where inhibition reaches its midpoint.

What all share (assay type): biochemical
The target in one assay is T1, Ret (Homo sapiens, UniProt P07949).
T1 construct: P1378.pET-SF BI-PTP RET H661-R1012 HIS; made in house
T1 sequence (P07949 with tags, fused parts or gaps): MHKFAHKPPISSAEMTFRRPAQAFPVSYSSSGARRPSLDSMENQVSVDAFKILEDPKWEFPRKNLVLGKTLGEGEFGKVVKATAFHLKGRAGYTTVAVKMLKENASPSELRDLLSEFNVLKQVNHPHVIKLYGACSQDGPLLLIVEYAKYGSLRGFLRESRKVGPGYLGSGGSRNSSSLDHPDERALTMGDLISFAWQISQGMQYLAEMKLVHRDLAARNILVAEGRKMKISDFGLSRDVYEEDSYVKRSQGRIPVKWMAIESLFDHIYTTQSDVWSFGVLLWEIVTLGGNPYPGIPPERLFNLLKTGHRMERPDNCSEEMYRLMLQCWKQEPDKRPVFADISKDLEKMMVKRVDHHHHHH
In words: AlphaScreen kinase assay, Ret. The following applies: read-out: IC50, activity toward kinase Ret. Background: In Alpha technology, singlet oxygen from a donor bead excites a nearby acceptor bead.

Another assay concerns the target T2, B-Raf (Homo sapiens, UniProt P15056).
T2 construct: purchased Upstate Biotechnology
Kind of assay: AlphaScreen kinase assay, B-Raf. Particulars: read-out: IC50, activity toward kinase B-Raf.

Another assay concerns the target T3, B-Raf V600E (Homo sapiens, UniProt P15056, V600E).
T3 construct: P4254. pFastBacBD-CDC37 BRAF D437-K722-X, V600E; His6 with pFastBac HT leader (TEV site) (N); made in house; host or cells: Sf9 (baculovirus; chaperone CDC37 co-expressed)
In words: AlphaScreen kinase assay, B-Raf V600E. The following applies: read-out: IC50, activity toward kinase B-Raf V600E.

A further assay addresses T4, FGFR1 (Homo sapiens, UniProt P11362, C488A/C584S).
T4 construct: P1351.pET N6 BI-PTP FGFR A458-E765-X C488A, C584S; made in house; host or cells: E. coli (PTP1B co-expressed)
Kind of assay: AlphaScreen kinase assay, FGFR1. Particulars: read-out: IC50, activity toward kinase FGFR.

The next assay addresses T5, Fms (Homo sapiens, UniProt P07333).
T5 construct: purchased Upstate Biotechnology
In words: AlphaScreen kinase assay, Fms. Particulars: read-out: IC50, activity toward kinase Fms.

The target in a further assay is T6, Kit (Homo sapiens, UniProt P10721).
T6 construct: P1332.N6 BI PTP KIT M552-K948-X COD; His6 (N); made in house; host or cells: E. coli (PTP1B co-expressed)
T6 sequence (P10721 with tags, fused parts or gaps): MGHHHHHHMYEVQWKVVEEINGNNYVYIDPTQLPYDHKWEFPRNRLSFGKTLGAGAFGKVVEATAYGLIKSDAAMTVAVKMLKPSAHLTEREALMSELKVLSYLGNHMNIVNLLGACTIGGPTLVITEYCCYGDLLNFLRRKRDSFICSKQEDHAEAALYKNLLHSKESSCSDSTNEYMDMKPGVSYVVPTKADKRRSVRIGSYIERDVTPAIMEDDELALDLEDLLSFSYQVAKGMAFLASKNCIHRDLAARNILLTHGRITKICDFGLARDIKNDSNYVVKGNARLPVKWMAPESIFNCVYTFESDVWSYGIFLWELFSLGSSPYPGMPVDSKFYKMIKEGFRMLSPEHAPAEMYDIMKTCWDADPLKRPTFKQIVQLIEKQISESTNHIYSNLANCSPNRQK
Kind of assay: AlphaScreen kinase assay, Kit. Particulars: read-out: IC50, activity toward kinase Kit.

A value given as a limit tells only on which side of the number the result lay.

T3 sequence (P15056 with tags, fused parts or gaps V600E): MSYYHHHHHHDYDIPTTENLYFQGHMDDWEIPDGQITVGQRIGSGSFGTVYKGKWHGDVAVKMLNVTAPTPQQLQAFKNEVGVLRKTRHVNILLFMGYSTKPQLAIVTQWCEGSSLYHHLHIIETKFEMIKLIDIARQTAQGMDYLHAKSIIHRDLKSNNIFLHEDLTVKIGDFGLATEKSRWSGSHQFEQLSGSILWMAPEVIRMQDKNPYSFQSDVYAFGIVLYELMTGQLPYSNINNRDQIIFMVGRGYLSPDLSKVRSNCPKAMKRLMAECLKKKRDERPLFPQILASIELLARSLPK
T2 sequence (P15056 whole entry): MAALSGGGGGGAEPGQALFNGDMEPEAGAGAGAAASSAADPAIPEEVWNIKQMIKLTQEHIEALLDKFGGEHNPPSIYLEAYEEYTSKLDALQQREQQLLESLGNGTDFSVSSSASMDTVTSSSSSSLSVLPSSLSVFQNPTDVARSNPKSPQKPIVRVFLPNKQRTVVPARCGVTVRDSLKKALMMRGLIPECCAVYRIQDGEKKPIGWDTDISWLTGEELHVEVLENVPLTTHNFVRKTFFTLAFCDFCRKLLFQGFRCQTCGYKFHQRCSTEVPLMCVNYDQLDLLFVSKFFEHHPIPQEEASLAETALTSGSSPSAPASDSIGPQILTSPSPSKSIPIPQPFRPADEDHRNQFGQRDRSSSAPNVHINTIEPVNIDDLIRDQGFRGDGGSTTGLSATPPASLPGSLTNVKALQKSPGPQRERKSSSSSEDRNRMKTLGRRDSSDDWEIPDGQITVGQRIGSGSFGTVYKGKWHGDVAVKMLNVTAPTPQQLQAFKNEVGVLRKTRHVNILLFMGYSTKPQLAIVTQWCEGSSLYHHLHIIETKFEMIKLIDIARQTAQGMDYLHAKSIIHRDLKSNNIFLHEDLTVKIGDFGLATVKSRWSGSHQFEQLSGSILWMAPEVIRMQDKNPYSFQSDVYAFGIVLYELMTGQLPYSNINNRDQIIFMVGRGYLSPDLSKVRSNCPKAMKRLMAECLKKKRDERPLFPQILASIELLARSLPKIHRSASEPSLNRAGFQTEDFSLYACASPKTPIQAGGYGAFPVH
T5 sequence (P07333 20-972): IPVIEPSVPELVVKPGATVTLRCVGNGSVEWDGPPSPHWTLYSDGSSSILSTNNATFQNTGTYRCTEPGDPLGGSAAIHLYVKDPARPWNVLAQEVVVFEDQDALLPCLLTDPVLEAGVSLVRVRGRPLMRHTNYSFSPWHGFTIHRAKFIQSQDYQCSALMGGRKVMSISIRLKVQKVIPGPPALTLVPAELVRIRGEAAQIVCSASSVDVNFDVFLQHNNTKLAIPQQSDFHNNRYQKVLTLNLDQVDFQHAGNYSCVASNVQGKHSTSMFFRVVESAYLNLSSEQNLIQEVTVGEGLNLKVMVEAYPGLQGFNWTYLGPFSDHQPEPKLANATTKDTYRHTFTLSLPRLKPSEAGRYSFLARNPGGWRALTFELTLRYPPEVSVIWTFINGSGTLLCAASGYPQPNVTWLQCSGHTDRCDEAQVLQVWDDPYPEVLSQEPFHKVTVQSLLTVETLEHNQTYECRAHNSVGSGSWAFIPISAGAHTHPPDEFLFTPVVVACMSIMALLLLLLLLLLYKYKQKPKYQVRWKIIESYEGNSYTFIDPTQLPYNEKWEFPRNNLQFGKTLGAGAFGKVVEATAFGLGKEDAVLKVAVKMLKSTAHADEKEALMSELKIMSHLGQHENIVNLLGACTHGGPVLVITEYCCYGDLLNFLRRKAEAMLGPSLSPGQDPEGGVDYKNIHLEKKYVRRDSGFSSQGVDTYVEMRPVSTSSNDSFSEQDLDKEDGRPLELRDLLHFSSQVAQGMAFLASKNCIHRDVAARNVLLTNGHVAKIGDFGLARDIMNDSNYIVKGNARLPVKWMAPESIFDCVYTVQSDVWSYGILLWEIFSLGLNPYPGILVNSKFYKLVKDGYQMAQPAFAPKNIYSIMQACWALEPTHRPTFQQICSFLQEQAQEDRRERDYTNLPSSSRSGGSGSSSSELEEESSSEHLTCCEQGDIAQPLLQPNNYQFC
T4 sequence (P11362 458-765 C488A/C584S): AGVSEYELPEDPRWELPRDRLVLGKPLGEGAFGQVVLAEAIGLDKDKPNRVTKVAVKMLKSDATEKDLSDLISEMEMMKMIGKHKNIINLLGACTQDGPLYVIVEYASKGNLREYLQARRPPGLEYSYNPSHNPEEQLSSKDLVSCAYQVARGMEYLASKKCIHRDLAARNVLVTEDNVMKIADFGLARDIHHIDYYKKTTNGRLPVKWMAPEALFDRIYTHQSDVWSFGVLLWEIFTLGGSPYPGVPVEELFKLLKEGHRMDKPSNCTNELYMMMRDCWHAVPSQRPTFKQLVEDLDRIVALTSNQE

For `COc1ccc(-c2ccnc3[nH]cc(C(=O)c4ccccc4F)c23)cn1` [Compound P-0245], the IC50 at Ret is at most 10 µM.
Turning to `COc1ccc(F)c(C(=O)c2c[nH]c3ncc(Br)cc23)c1` [Compound P-0284], the IC50 on B-Raf, at B-Raf V600E, on FGFR1, at Fms and on Kit was at most 10 µM in each case.
For `O=S(=O)(NCc1c[nH]c2ncccc12)C(F)(F)F` [Compound P-0412], the IC50 at Ret was at most 10 µM.
Regarding `Fc1ccc(-c2c(CNCc3ccccc3)[nH]c3ncccc23)cc1` [Compound P-0517], the IC50 on Ret is at most 10 µM.
Still for that read-out and setting: as for `Cc1c(Cl)cc(F)cc1S(=O)(=O)NCc1cc2cccnc2[nH]1` [Compound P-0533], the figure is at most 10 µM.
On to `COc1ccc(-c2ccnc3[nH]cc(C(=O)c4ccccc4C)c23)cn1` [Compound P-0536], for which, on Ret, the IC50 was at most 10 µM.
As for `Fc1cnc(F)c(F)c1Cc1c[nH]c2ncc(-c3ccsc3)cc12` [Compound P-0596], the IC50 on Ret is at most 10 µM.
Take `Cc1cc(C(=O)c2c[nH]c3ncc(Br)cc23)no1` [Compound P-0608]: the IC50 at Ret was at most 10 µM.
With `CS(=O)(=O)Nc1cccc(-c2ccnc3[nH]cc(C(=O)c4ccc(Cl)cc4)c23)c1` [Compound P-0678], at Ret, the 50% inhibitory concentration (IC50) was at most 10 µM.
In the case of `O=S(=O)(NCc1c[nH]c2ncccc12)c1cc(Br)cc(Cl)n1` [Compound P-0726], the IC50 at Ret was at most 10 µM.
Consider `Cc1nc(-c2ccc(S(=O)(=O)NCc3c[nH]c4ncccc34)s2)cs1` [Compound P-0735], for which, on Ret, the IC50 is at most 10 µM.
Same read-out and setting: the value for `CS(=O)(=O)Nc1ccc(F)c(C(=O)c2c[nH]c3ncccc23)c1` [Compound P-0881] was at most 10 µM.
Consider `Cc1ccc(F)cc1C(=O)c1c[nH]c2nccc(-c3cccc(/C=C/C(=O)O)c3)c12` [Compound P-0985], for which the IC50 on Ret is at most 10 µM.
Take `Cc1cc(C(=O)c2c[nH]c3nccc(-c4cccc(C(N)=O)c4)c23)no1` [Compound P-1036]: the IC50 at Ret is at most 10 µM.
On to `Cc1cc(C(=O)c2c[nH]c3ncc(-c4cccc(/C=C/C(=O)O)c4)cc23)no1` [Compound P-1072], for which the IC50 on Ret was at most 10 µM.
Still for that read-out and setting: the value for `CC(=O)Nc1cccc(-c2ccnc3[nH]cc(C(=O)c4ccc(Cl)cc4)c23)c1` [Compound P-1075] was at most 10 µM; that for `[O-][S+](c1ccccc1)c1c[nH]c2ncc(Br)cc12` (stereo not shown) [Compound P-1097] was at most 10 µM.
For the compound `Cc1ccc(F)cc1C(=O)c1c[nH]c2nccc(-c3cccnc3)c12` [Compound P-1121], at Ret, the IC50 was at most 10 µM.
As for `CC(=O)Nc1cccc(-c2ccnc3[nH]cc(C(=O)c4cc(F)ccc4C)c23)c1` [Compound P-1126], on Ret, the half-maximal inhibitory concentration (IC50) was at most 10 µM.
In the case of `O=C(Nc1ccc(Cl)cc1)Nc1cccc(C(=O)c2c[nH]c3ncccc23)c1` [Compound P-1709, 1-(4-Chloro-phenyl)-3-[3-(1H-pyrrolo[2,3-b]pyridine-3-carbonyl)-phenyl]-urea], the IC50 on B-Raf, on B-Raf V600E, on Fms and on Kit was at most 10 µM in each case.
Turning to `Cc1ccc(NC(=O)Nc2cccc(C(=O)c3c[nH]c4ncccc34)c2)cc1` [Compound P-1718, 1-[3-(1H-Pyrrolo[2,3-b]pyridine-3-carbonyl)-phenyl]-3-p-tolyl-urea], the IC50 on B-Raf, at B-Raf V600E, on Fms and on Kit was at most 10 µM each time.
Take `Cc1cccc(NC(=O)Nc2cccc(C(=O)c3c[nH]c4ncccc34)c2)c1` [Compound P-1719, 1-[3-(1H-Pyrrolo[2,3-b]pyridine-3-carbonyl)-phenyl]-3-m-tolyl-urea]: the IC50 at B-Raf, at B-Raf V600E, at Fms and on Kit was at most 10 µM in each case.
As for `O=C(c1c(F)ccc(NS(=O)(=O)c2ccsc2)c1F)c1c[nH]c2ncc(Br)cc12` [Compound P-1798, Thiophene-3-sulfonic acid [3-(5-bromo-1H-pyrrolo[2,3-b]pyridine-3-carbonyl)-2,4-difluoro-phenyl]-amide], the IC50 at B-Raf, on B-Raf V600E, on Fms and on Kit was at most 10 µM in each case.
As for `N#Cc1ccc(S(=O)(=O)Nc2ccc(F)c(C(=O)c3c[nH]c4ncc(Cl)cc34)c2F)cc1` [Compound P-1822, N-[3-(5-Chloro-1H-pyrrolo[2,3-b]pyridine-3-carbonyl)-2,4-difluoro-phenyl]-4-cyano-benzenesulfonamide], the IC50 on B-Raf, at B-Raf V600E, at Fms and at Kit was at most 10 µM in each case.
For the compound `O=C(c1c(F)ccc(NS(=O)(=O)c2ccc(F)cc2)c1F)c1c[nH]c2ncc(Cl)cc12` [Compound P-1840, N-[3-(5-Chloro-1H-pyrrolo[2,3-b]pyridine-3-carbonyl)-2,4-difluoro-phenyl]-4-fluoro-benzenesulfonamide], the IC50 at B-Raf, at B-Raf V600E, at Fms and on Kit was at most 10 µM in each case.
Turning to `COCCOc1cnc2[nH]cc(C(=O)c3c(F)ccc(NS(=O)(=O)c4ccc(F)cc4)c3F)c2c1` [Compound P-1872, N-{2,4-Difluoro-3-[5-(2-methoxy-ethoxy)-1H-1-pyrrolo[2,3-b]pyridine-3-carbonyl]-phenyl}-4-fluoro-benzenesulfonamide], the IC50 on B-Raf, at B-Raf V600E, at Fms and on Kit was at most 10 µM throughout.
With `CCCS(=O)(=O)Nc1ccc(F)c(C(=O)c2c[nH]c3ncc(-c4cc(C)c(C#N)c(C)c4)cc23)c1F` [Compound P-1980, Propane-1-sulfonic acid {3-[5-(4-cyano-3,5-dimethyl-phenyl)-1H-pyrrolo[2,3-b]pyridine-3-carbonyl]-2,4-difluoro-phenyl}-amide], the IC50 on B-Raf, at B-Raf V600E, at Fms and on Kit was at most 10 µM each time.
Turning to `Cn1cc(-c2cnc3[nH]cc(C(=O)c4c(F)ccc(NS(=O)(=O)c5ccc(C(F)(F)F)cc5)c4F)c3c2)cn1` [Compound P-1996, N-{2,4-Difluoro-3-[5-(1-methyl-1H-pyrazol-4-yl)-1H-pyrrolo[2,3-b]pyridine-3-carbonyl]-phenyl}-4-trifluoromethyl-benzenesulfonamide], the IC50 at B-Raf, on B-Raf V600E, on Fms and at Kit was at most 10 µM each time.
In the case of `Cn1cc(-c2cnc3[nH]cc(C(=O)c4c(F)ccc(NS(=O)(=O)c5cccc(F)c5)c4F)c3c2)cn1` [Compound P-1997, N-{2,4-Difluoro-3-[5-(1-methyl-1H-pyrazol-4-yl)-1H-pyrrolo[2,3-b]pyridine-3-carbonyl]-phenyl}-3-fluoro-benzenesulfonamide], the IC50 on B-Raf, at B-Raf V600E, at Fms and at Kit was at most 10 µM in each case.
On to `CCCS(=O)(=O)Nc1ccc(F)c(C(=O)c2c[nH]c3ncc(-c4ccc(OCCOC)cc4)cc23)c1F` [Compound P-1998, Propane-1-sulfonic acid (2,4-difluoro-3-{5-[4-(2-methoxy-ethoxy)-phenyl]-1H-pyrrolo[2,3-b]pyridine-3-carbonyl}-phenyl)-amide], for which the IC50 on B-Raf, on B-Raf V600E, at Fms and on Kit was at most 10 µM throughout.
